Assay [1] has as its system S91. Description: […] potency was measured as the minimal effective dose required to elicit the response relative to alpha-MSH(1.0) by using melanoma tyrosinase bioassay; response is somewhat prolonged (+/-). Format: functional, Mus musculus.
The subject of assay [2] is lizard. Description: […] activity in lizard skin (10e-9 M) bioassay, compared to the half-maximal effective dose of alpha-MSH (1.0); response is not prolonged (-). The assay is classed as functional.
Assay [3] concerns lizard. Description: […] activity in lizard skin (10e-9 M) bioassay, compared to the half-maximal effective dose of alpha-MSH (1.0); response is prolonged (+). Format: functional.
Assay [4] has as its system S91. Description: […] potency was measured as the minimal effective dose required to elicit the response relative to alpha-MSH(1.0) by using melanoma tyrosinase bioassay; response is prolonged (+).range=10-100. Format: functional, Mus musculus.
The test system of assay [5] is S91. Description: […] potency was measured as the minimal effective dose required to elicit the response relative to alpha-MSH(1.0) by using melanoma tyrosinase bioassay; response is prolonged (+).range =10-100. The assay is classed as functional, Mus musculus.

The record followed here is ChEMBL document CHEMBL1126009, “Synthesis and biological activities of fatty acid conjugates of a cyclic lactam alpha-melanotropin” (1992).

Compound `CC(=O)N[C@H]1CC(=O)NCCCC[C@@H](C(N)=O)NC(=O)[C@H](Cc2c[nH]c3ccccc23)NC(=O)[C@H](CCCN=C(N)N)NC(=O)[C@@H](Cc2ccccc2)NC(=O)[C@H](Cc2c[nH]cn2)NC1=O` had a Melanotropic potency in the assay with S91 [1] of 1.
`NC(=O)[C@@H]1CCCCNC(=O)C[C@H](N)C(=O)N[C@H](Cc2c[nH]cn2)C(=O)N[C@H](Cc2ccccc2)C(=O)N[C@H](CCCN=C(N)N)C(=O)N[C@@H](Cc2c[nH]c3ccccc23)C(=O)N1`: the Melanotropic activity in the assay on lizard [2] is 0.2.
`CC(=O)N[C@H]1CC(=O)NCCCC[C@@H](C(N)=O)NC(=O)[C@H](Cc2c[nH]c3ccccc23)NC(=O)[C@@H](CCCN=C(N)N)NC(=O)[C@@H](Cc2ccccc2)NC(=O)[C@@H](Cc2c[nH]cn2)NC1=O`: in the assay with lizard [2], the Melanotropic activity was determined as 1.
Compound `CCCCCC(=O)N[C@H]1CC(=O)NCCCC[C@@H](C(N)=O)NC(=O)[C@H](Cc2c[nH]c3ccccc23)NC(=O)[C@@H](CCCN=C(N)N)NC(=O)[C@H](Cc2ccccc2)NC(=O)[C@@H](Cc2c[nH]cn2)NC1=O` had a Melanotropic activity with lizard [3] of 1.
Compound `CCCCCCCCCC(=O)N[C@H]1CC(=O)NCCCC[C@@H](C(N)=O)NC(=O)[C@H](Cc2c[nH]c3ccccc23)NC(=O)[C@H](CCCN=C(N)N)NC(=O)[C@@H](Cc2ccccc2)NC(=O)[C@H](Cc2c[nH]cn2)NC1=O` showed a Melanotropic potency with S91 [4] of 100.
`CCCCCCCCCCCCCC(=O)NC1CC(=O)NCCCC[C@@H](C(N)=O)NC(=O)[C@H](Cc2c[nH]c3ccccc23)NC(=O)[C@@H](CCCN=C(N)N)NC(=O)[C@H](Cc2ccccc2)NC(=O)[C@@H](Cc2c[nH]cn2)NC1=O` (some centres not stated) displayed a Melanotropic activity in the assay with lizard [3] of 0.01.
In turn, `NC(=O)[C@@H]1CCCCNC(=O)C[C@H](N)C(=O)N[C@@H](Cc2c[nH]cn2)C(=O)N[C@H](Cc2ccccc2)C(=O)N[C@@H](CCCN=C(N)N)C(=O)N[C@@H](Cc2c[nH]c3ccccc23)C(=O)N1` showed a Melanotropic potency in the assay with S91 [1] of 1.
For `CCCCCCCCCC(=O)NC1CC(=O)NCCCC[C@@H](C(N)=O)NC(=O)[C@H](Cc2c[nH]c3ccccc23)NC(=O)[C@@H](CCCN=C(N)N)NC(=O)[C@H](Cc2ccccc2)NC(=O)[C@@H](Cc2c[nH]cn2)NC1=O` (some centres not stated), the Melanotropic activity with lizard [3] came out at 1.
For `CCCCCCCCCCCCCC(=O)N[C@H]1CC(=O)NCCCC[C@@H](C(N)=O)NC(=O)[C@H](Cc2c[nH]c3ccccc23)NC(=O)[C@H](CCCN=C(N)N)NC(=O)[C@@H](Cc2ccccc2)NC(=O)[C@H](Cc2c[nH]cn2)NC1=O`, in the assay on S91 [5], the Melanotropic potency was 100.
`CCCCCC(=O)N[C@H]1CC(=O)NCCCC[C@@H](C(N)=O)NC(=O)[C@H](Cc2c[nH]c3ccccc23)NC(=O)[C@H](CCCN=C(N)N)NC(=O)[C@@H](Cc2ccccc2)NC(=O)[C@H](Cc2c[nH]cn2)NC1=O`: in the assay on S91 [4], the Melanotropic potency came to 100.
For the compound `CCCCCCCCCCCCCCCC(=O)N[C@H]1CC(=O)NCCCC[C@@H](C(N)=O)NC(=O)[C@H](Cc2c[nH]c3ccccc23)NC(=O)[C@H](CCCN=C(N)N)NC(=O)[C@@H](Cc2ccccc2)NC(=O)[C@H](Cc2c[nH]cn2)NC1=O`, the Melanotropic potency in the assay on S91 [4] stood at 100.
In the assay on lizard [3], `CCCCCCCCCCCCCCCC(=O)NC1CC(=O)NCCCC[C@@H](C(N)=O)NC(=O)[C@H](Cc2c[nH]c3ccccc23)NC(=O)[C@@H](CCCN=C(N)N)NC(=O)[C@H](Cc2ccccc2)NC(=O)[C@@H](Cc2c[nH]cn2)NC1=O` (some centres not stated) came in with a Melanotropic activity of 0.01.
